Results on two compounds are retold here after article PMC3726336, “Product inhibition of cellulases studied with ^14C-labeled cellulose substrates” (Biotechnology for Biofuels, 2013).

A word on the Km: it is the concentration of substrate that gives half-maximal velocity.

The test system of one experiment is GH7 CBHs. The arrangement: method as in PMID 18512263. Conditions: MUL as substrate of the GH7 CBHs; cited from earlier work.
The target of the next experiment is T1, TrCel6A (Trichoderma reesei, UniProt P07987).
T1 construct: TrCel6A was purified from the culture filtrate of Tr QM 9414 as described previously; made in house; host or cells: Trichoderma reesei QM 9414 culture filtrate (native producer)
T1 sequence (P07987 25-471): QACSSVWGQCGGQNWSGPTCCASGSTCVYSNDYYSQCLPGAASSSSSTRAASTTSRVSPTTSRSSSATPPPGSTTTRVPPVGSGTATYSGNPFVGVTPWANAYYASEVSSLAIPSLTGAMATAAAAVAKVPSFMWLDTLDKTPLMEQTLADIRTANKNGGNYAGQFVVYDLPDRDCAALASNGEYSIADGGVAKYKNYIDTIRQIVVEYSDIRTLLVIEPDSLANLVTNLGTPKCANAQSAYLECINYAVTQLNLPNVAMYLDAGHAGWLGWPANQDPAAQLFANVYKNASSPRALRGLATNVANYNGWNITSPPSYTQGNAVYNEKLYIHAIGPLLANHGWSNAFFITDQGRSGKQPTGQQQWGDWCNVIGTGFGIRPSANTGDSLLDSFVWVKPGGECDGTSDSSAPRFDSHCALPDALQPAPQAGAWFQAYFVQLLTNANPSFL
In words: Inhibition of hydrolysis of 14C-BMCC by TrCel6A. The format is biochemical. The note with it: TrCel6A, 14C-BMCC, 50°C. The source says: (§1) Here, we characterized the cellobiose and glucose inhibition of TrCel6A and its thermophilic counterpart, CtCel6A [9, 63]. First, the cellobiose inhibition of the synergistic hydrolysis of ^14C-BC by TrCel6A and TrCel5A was studied (Figure 7A). As TrCel6A was less sensitive to cellobiose inhibition than TrCel7A, the contribution of the cellobiose released during hydrolysis was not significant, and an average (DCB/DCB=0) over all time points was used in plotting (DCB/DCB=0) versus [cellobiose] (Figure 7D). No significant systematic variation of DCB/DCB=0 depending on hydrolysis time was observed. As in the case of GH7 CBHs, the IC50 value was found using Equations 5 and 6. Because the IC50 value for synergistic hydrolysis (Table 3) was of the same order as the apparent Ki value reported for TrCel5A [31], we further tested the inhibition of individual TrCel6A. BC is not a good substrate for TrCel6A, but its acid-treated derivative, BMCC, is readily degraded by the enzyme. Therefore, we prepared ^14C-BMCC by the heterogeneous acid hydrolysis of ^14C-BC. […]
(§2) GH6 CBHs were assessed by observing the hydrolysis of ^14C-BMCC. ^14C-BMCC (0.25 g l^-1) was incubated (with shaking at 350 rpm) with CBH (0.25 μM) and N188BG (0.06 μM) in 50 mM sodium acetate buffer, pH 5.0, containing BSA (0.1 g l^-1). […]

A further experiment deals with CtCel6A (Chaetomium thermophilum, UniProt G0SD43). In words: Inhibition of hydrolysis of 14C-BMCC by CtCel6A. The format is biochemical. Conditions: CtCel6A, 14C-BMCC, 50°C.
Sequence of CtCel6A (G0SD43 entry or part of it): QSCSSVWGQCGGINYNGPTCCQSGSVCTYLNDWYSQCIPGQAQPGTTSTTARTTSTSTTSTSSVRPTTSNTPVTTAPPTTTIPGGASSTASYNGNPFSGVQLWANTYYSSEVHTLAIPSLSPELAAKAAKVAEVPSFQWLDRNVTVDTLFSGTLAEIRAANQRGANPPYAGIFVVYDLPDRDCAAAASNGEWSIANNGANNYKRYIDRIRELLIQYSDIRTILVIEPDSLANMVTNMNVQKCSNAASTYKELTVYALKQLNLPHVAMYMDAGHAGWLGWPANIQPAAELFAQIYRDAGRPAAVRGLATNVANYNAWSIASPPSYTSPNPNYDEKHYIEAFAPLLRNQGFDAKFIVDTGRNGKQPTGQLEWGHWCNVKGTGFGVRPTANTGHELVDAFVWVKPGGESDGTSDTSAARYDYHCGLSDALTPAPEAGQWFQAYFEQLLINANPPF
Description: as §1, §2

The next experiment deals with T2, TrCel5A (Trichoderma reesei, UniProt P07982).
T2 construct: TrCel7B, TrCel5A, and TrCel12A were purified from the culture filtrate of Tr QM 9414; made in house; host or cells: Trichoderma reesei QM 9414 culture filtrate (native producer)
T2 sequence (P07982 22-418): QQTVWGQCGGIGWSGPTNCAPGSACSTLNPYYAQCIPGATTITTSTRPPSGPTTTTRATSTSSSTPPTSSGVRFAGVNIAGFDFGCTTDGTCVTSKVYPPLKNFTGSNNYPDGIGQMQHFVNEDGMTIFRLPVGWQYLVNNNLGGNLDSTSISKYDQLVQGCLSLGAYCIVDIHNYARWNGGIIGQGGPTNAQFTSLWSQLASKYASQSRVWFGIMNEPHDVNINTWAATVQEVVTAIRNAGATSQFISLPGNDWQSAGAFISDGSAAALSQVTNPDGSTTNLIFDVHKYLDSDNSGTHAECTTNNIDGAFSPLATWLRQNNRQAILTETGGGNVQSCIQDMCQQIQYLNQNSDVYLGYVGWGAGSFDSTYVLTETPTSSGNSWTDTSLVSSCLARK
Further details: method as in PMID 23410927. Conditions: cited from earlier work.

Consider `Cc1cc(=O)oc2cc(O[C@@H]3O[C@H](CO)[C@@H](O[C@@H]4O[C@H](CO)[C@H](O)[C@H](O)[C@H]4O)[C@H](O)[C@H]3O)ccc12` [MUL, 4-methylumbelliferyl-β-lactoside], for which the Km in the experiment on GH7 CBHs was approximately 300 µM.

As for `OC[C@H]1OC(O)[C@H](O)[C@@H](O)[C@@H]1O` (stereo partly shown) [glucose, Glucose], the “times weaker inhibitor than cellobiose” value at TrCel6A and at CtCel6A was “approximately 10 times” throughout. In addition, on TrCel5A, the inhibition by glucose result was “not significantly inhibited”.
